The values that follow come from PMC11995724, “Antibiotic target discovery by integrated phenotypic and activity-based profiling of electrophilic fragments” (Cell chemical biology, 2025).

The nature of the data set: in vitro. The conditions noted are these: human, hek293t cells.
Description: Mammalian cytotoxicity measurement was performed using Cell Titer-Glo 2.0 Cell Viability Assay (Promega, G9243) according to the manufacturer protocol. In brief, mammalian cells were seeded into 384-well white plates (Greiner, 781080) and incubated at 37°C for one day. Compounds from the Cys-Library were dispensed into the assay plate using epMotion 96. The plates were then incubated at 37°C for two days. An equal volume of Cell Titer-Glo 2.0 reagent was added into each well of the assay plate using epMotion 96 and incubated at 22°C for 10 min, followed by luminescence measurement using a Cytation 5 plate reader (BioTek).
As to `CC(Cl)C(=O)N[C@@H]1CCc2c(C#N)cccc21` (stereo partly drawn) [6-P14, 2-chloro-N-[(1R)-4-cyano-2,3-dihydro-1H-inden-1-yl]propanamide], the viability at 48 h, 25 µM came out at 114%.
For `CC(Cl)C(=O)Nc1ccc2c(c1)ncn2CCN(C)C` (stereo not drawn) [6-P15, 2-chloro-N-{1-[2-(dimethylamino)ethyl]-1H-1,3-benzodiazol-5-yl}propanamide] the value was 113%; for `CC(Cl)C(=O)N1CCN(C(c2ccccc2)C(F)(F)F)CC1` (stereo not drawn) [6-P16, 2-chloro-1-[4-(2,2,2-trifluoro-1-phenylethyl)piperazin-1-yl]propan-1-one], 114%.
For `CC(Cl)C(=O)N1CCN(Cc2cc(=O)n3ccsc3n2)CC1` (stereo not drawn) [6-P17, 7-{[4-(2-chloropropanoyl)piperazin-1-yl]methyl}-5H-[1,3]thiazolo[3,2-a]pyrimidin-5-one] the value was 113%; for `CC(Cl)C(=O)N1CCCC(CC(=O)OC(C)(C)C)CC1` (stereo not drawn) [6-P18, tert-butyl 2-[1-(2-chloropropanoyl)azepan-4-yl]acetate], 93.9%; for `Cc1noc(C)c1C(C)CNC(=O)C(C)Cl` (stereo not drawn) [6-P19, 2-chloro-N-[2-(3,5-dimethyl-1,2-oxazol-4-yl)propyl]propanamide], 115%.
As for `CC(Cl)C(=O)N(C)Cc1cc(Cl)cn1C` (stereo not drawn) [6-P21, 2-chloro-N-[(4-chloro-1-methyl-1H-pyrrol-2-yl)methyl]-N-methylpropanamide], the viability at 48 h, 25 µM stood at 103%.
For `O=C(CCl)NC1CN(C(=O)C2CC2)C1` [6-P22, 2-chloro-N-(1-cyclopropanecarbonylazetidin-3-yl)acetamide] the value was 112%; for `CC(Cl)C(=O)N1CCCCC1c1cnn(C)c1` (stereo not drawn) [7-A03, 2-chloro-1-[2-(1-methyl-1H-pyrazol-4-yl)piperidin-1-yl]propan-1-one], 98.8%.
Turning to `CC(Cl)C(=O)NCc1nc(N(C)C)no1` (stereo not drawn) [7-A04, 2-chloro-N-{[3-(dimethylamino)-1,2,4-oxadiazol-5-yl]methyl}propanamide], the viability at 48 h, 25 µM worked out at 92.2%.
With `CC(Cl)C(=O)NCc1nc2c(s1)CC(c1ccccc1)CC2` (stereo not drawn) [7-A05, 2-chloro-N-[(6-phenyl-4,5,6,7-tetrahydro-1,3-benzothiazol-2-yl)methyl]propanamide], the viability at 48 h, 25 µM came to 57.5%.
`CC(Cl)C(=O)NCC1(C2CC2)CCC1` (stereo not drawn) [7-A06, 2-chloro-N-[(1-cyclopropylcyclobutyl)methyl]propanamide]: the viability at 48 h, 25 µM was 81.1%.
The result for `CC(Cl)C(=O)NCC(C)c1nncn1C` (stereo not drawn) [7-A07, 2-chloro-N-[2-(4-methyl-4H-1,2,4-triazol-3-yl)propyl]propanamide] reads 84.8%.
For `CC(Cl)C(=O)N1CCCC(n2ccc(C(F)(F)F)n2)C1` (stereo not drawn) [7-A08, 2-chloro-1-{3-[3-(trifluoromethyl)-1H-pyrazol-1-yl]piperidin-1-yl}propan-1-one] the value was 80.7%; for `CC(Cl)C(=O)N1CCOCC1c1cccn1C` (stereo not drawn) [7-A09, 2-chloro-1-[3-(1-methyl-1H-pyrrol-2-yl)morpholin-4-yl]propan-1-one], 82%; for `CC(Cl)C(=O)NCc1nnc(C2CCC2)n1C` (stereo not drawn) [7-A10, 2-chloro-N-[(5-cyclobutyl-4-methyl-4H-1,2,4-triazol-3-yl)methyl]propanamide], 87.1%.
The result for `CC(Cl)C(=O)NC1(c2ccccc2)CCOCC1` (stereo not drawn) [7-A11, 2-chloro-N-(4-phenyloxan-4-yl)propanamide] reads 108%; that for `CC(Cl)C(=O)NCc1cc(-c2ccccc2)on1` (stereo not drawn) [7-A13, 2-chloro-N-[(5-phenyl-1,2-oxazol-3-yl)methyl]propanamide], 74.7%; that for `CC(Cl)C(=O)NCCc1cn(C)nn1` (stereo not drawn) [7-A14, 2-chloro-N-[2-(1-methyl-1H-1,2,3-triazol-4-yl)ethyl]propanamide], 82.7%.
With `CC(Cl)C(=O)N1CCN(Cc2ccc3ccccc3n2)CC1` (stereo not drawn) [7-A15, 2-chloro-1-{4-[(quinolin-2-yl)methyl]piperazin-1-yl}propan-1-one], the viability at 48 h, 25 µM amounted to 83.2%.
For `Cc1ccc(N2CCN(C(=O)C(C)Cl)CC2=O)o1` (stereo not drawn) [7-A16, 4-(2-chloropropanoyl)-1-(5-methylfuran-2-yl)piperazin-2-one] the value was 74.7%; for `CC(Cl)C(=O)NC1COc2ccc(F)cc21` (stereo not drawn) [7-A17, 2-chloro-N-(5-fluoro-2,3-dihydro-1-benzofuran-3-yl)propanamide], 74%.
On to `CC(Cl)C(=O)N1CCC(Oc2ccc(C3CC3)cn2)C1` (stereo not drawn) [7-A18, 2-chloro-1-{3-[(5-cyclopropylpyridin-2-yl)oxy]pyrrolidin-1-yl}propan-1-one], for which the viability at 48 h, 25 µM stood at 60.4%.
The result for `Cc1nnnn1CCNC(=O)C(C)Cl` (stereo not drawn) [7-A19, 2-chloro-N-[2-(5-methyl-1H-1,2,3,4-tetrazol-1-yl)ethyl]propanamide] reads 79%; that for `CC(Cl)C(=O)N1CC(C(=O)N2CCN(C)CC2)Oc2ccccc21` (stereo not drawn) [7-A20, 2-chloro-1-[2-(4-methylpiperazine-1-carbonyl)-3,4-dihydro-2H-1,4-benzoxazin-4-yl]propan-1-one], 77.1%; that for `Cc1ccc(NC(=O)N2CCN(C(=O)C(C)Cl)CC2)cc1Cl` (stereo not drawn) [7-A21, N-(3-chloro-4-methylphenyl)-4-(2-chloropropanoyl)piperazine-1-carboxamide], 70.8%.
`CC(Cl)C(=O)N1CCCC1c1cccc(N(C)C)c1` (stereo not drawn) [7-A22, 2-chloro-1-{2-[3-(dimethylamino)phenyl]pyrrolidin-1-yl}propan-1-one]: the viability at 48 h, 25 µM worked out at 68.7%.
For `Cc1nn(-c2ccccc2)c(C)c1CN(C)C(=O)CCl` [7-B03, 2-chloro-N-[(3,5-dimethyl-1-phenyl-1H-pyrazol-4-yl)methyl]-N-methylacetamide] the value was 0.804%.
For `O=C(CCl)NC1CCCc2nc(-c3ccccc3)sc21` (stereo not drawn) [7-B04, 2-chloro-N-(2-phenyl-4,5,6,7-tetrahydro-1,3-benzothiazol-7-yl)acetamide] the value was 0.382%; for `Cc1noc(C)c1CN(C(=O)CCl)C1CC1` [7-B05, 2-chloro-N-cyclopropyl-N-[(3,5-dimethyl-1,2-oxazol-4-yl)methyl]acetamide], 0.0855%.
The result for `O=C(CCl)NCc1nn(-c2ccccc2)c2c1CCC2` [7-B06, 2-chloro-N-({1-phenyl-1H,4H,5H,6H-cyclopenta[c]pyrazol-3-yl}methyl)acetamide] reads 0.565%; that for `Cc1nc2cc(=O)[nH]n2c(C)c1CNC(=O)C(C)Cl` (stereo not drawn) [7-B07, 2-chloro-N-({5,7-dimethyl-2-oxo-1H,2H-pyrazolo[1,5-a]pyrimidin-6-yl}methyl)propanamide], 96.1%.
In the case of `O=C(CCl)NCC1CCN(C(=O)Cc2ccccc2)C1` (stereo not drawn) [7-B08, 2-chloro-N-{[1-(2-phenylacetyl)pyrrolidin-3-yl]methyl}acetamide], the viability at 48 h, 25 µM stood at 0.975%.
For `Cc1ccc(C2OCCCC2CNC(=O)C(C)Cl)cc1` (stereo not drawn) [7-B09, 2-chloro-N-{[2-(4-methylphenyl)oxan-3-yl]methyl}propanamide] the value was 91.9%; for `CN1C(=O)c2ccccc2C1CNC(=O)CCl` (stereo not drawn) [7-B10, 2-chloro-N-[(2-methyl-3-oxo-2,3-dihydro-1H-isoindol-1-yl)methyl]acetamide], 4.11%; for `CC(Cl)C(=O)N1CCCC1c1nccc(C(F)(F)F)n1` (stereo not drawn) [7-B11, 2-chloro-1-{2-[4-(trifluoromethyl)pyrimidin-2-yl]pyrrolidin-1-yl}propan-1-one], 106%.
For `O=C(CCl)NCC(=O)N(c1ccccc1)c1ccccc1` [7-B12, 2-chloro-N-[(diphenylcarbamoyl)methyl]acetamide] the value was 1.21%; for `Cc1cc(N2CCCC(NC(=O)C(C)Cl)C2=O)n(C)n1` (stereo not drawn) [7-B13, 2-chloro-N-[1-(1,3-dimethyl-1H-pyrazol-5-yl)-2-oxopiperidin-3-yl]propanamide], 95.8%.
For `O=C(CCl)NC1CCCOc2c(F)cccc21` (stereo not drawn) [7-B14, 2-chloro-N-(9-fluoro-2,3,4,5-tetrahydro-1-benzoxepin-5-yl)acetamide] the value was 0.886%; for `CCc1nsc(N2CCCN(C(=O)C(C)Cl)CC2)n1` (stereo not drawn) [7-B15, 2-chloro-1-[4-(3-ethyl-1,2,4-thiadiazol-5-yl)-1,4-diazepan-1-yl]propan-1-one], 84.3%; for `O=C(CCl)N(Cc1nc(C2CCCCCC2)no1)C1CC1` [7-B16, 2-chloro-N-[(3-cycloheptyl-1,2,4-oxadiazol-5-yl)methyl]-N-cyclopropylacetamide], 0.667%.
In the case of `CC(Cl)C(=O)N1CCOCC1c1nc(-c2cccs2)no1` (stereo not drawn) [7-B17, 2-chloro-1-{3-[3-(thiophen-2-yl)-1,2,4-oxadiazol-5-yl]morpholin-4-yl}propan-1-one], the viability at 48 h, 25 µM was 75.7%.
For `C=C(Cl)CN(C(=O)CCl)C1CCc2ccccc21` (stereo not drawn) [7-B18, 2-chloro-N-(2-chloroprop-2-en-1-yl)-N-(2,3-dihydro-1H-inden-1-yl)acetamide] the value was 0.322%; for `CC(Cl)C(=O)NC(C)c1nc(Cc2ccccc2)no1` (stereo not drawn) [7-B19, N-[1-(3-benzyl-1,2,4-oxadiazol-5-yl)ethyl]-2-chloropropanamide], 79.9%; for `Cc1cc(CN(C(=O)CCl)C2CCCC2)c2ccccc2n1` [7-B20, 2-chloro-N-cyclopentyl-N-[(2-methylquinolin-4-yl)methyl]acetamide], 0.493%.
The result for `CC(Cl)C(=O)N(C)Cc1cc(C(C)(C)C)[nH]n1` (stereo not drawn) [7-B21, N-[(5-tert-butyl-1H-pyrazol-3-yl)methyl]-2-chloro-N-methylpropanamide] reads 80.5%; that for `O=C(CCl)NC(c1ccc(F)c(C(F)(F)F)c1)C1CC1` (stereo not drawn) [7-B22, 2-chloro-N-{cyclopropyl[4-fluoro-3-(trifluoromethyl)phenyl]methyl}acetamide], 0.631%.
With `CC(Cl)C(=O)NCC1CN(S(C)(=O)=O)C1` (stereo not drawn) [7-C04, 2-chloro-N-[(1-methanesulfonylazetidin-3-yl)methyl]propanamide], the viability at 48 h, 25 µM was 118%.

Broadly, the viability is a read-out of living cells in per cent, often relative to untreated cells.
